Experimental data: PMC7418971 (PLoS Pathogens, 2020)
Read-outs that look alike come from different tables or passages of the source.

Legend:
Eng195 in MDCK culture = type: cell-based, influenza A virus
[1] = tested on: Eng195 M2-N31 TM/CD peptides; type: biochemical
[2] = tested on: A/England/195/2009 (E195) influenza A virus; assay: microbe, parasite or virus in culture; type: cell-based; conditions: for IC50: read-out: Virus culture IC50
H1N1 WSN virus = conditions: read-out: EC50 in antiviral plaque assay; cited from earlier work
[3] = tested on: M2-N31 and M2-S31 CD peptides; type: biochemical, Influenza A/England/195/2009 (H1N1)

| Structure (SMILES) | combination effect with M2WJ332 (Eng195 in MDCK culture) | TM/CD peptide preference in titration [1] | Virus culture Fold Titre Reduction (80 µM) [2] [x] | IC50 ([2]; Influenza A virus, MDCK) [nM] | antiviral effect versus Eng195 in culture [2] | further results |
| --- | --- | --- | --- | --- | --- | --- |
| Cc1ccc2nc(Oc3ccccc3)ccc2c1 [DP9] | synergistic | preferential inhibition of CD peptides | 100 | 25000 to 50000 | – | IC50 [2]: > 25000 nM |
| COc1ccccc1NC(=S)NC(=O)c1cc2ccccc2cc1OC [L1.1] | synergistic | equivalent activity versus both TM/CD | 1000 | 1330 | – | combination effect with Zanamivir (Eng195 in MDCK culture): synergistic; reduction in virus titre [2]: ~3 log10 |
| c1csc(-c2cc(CNC34CC5CC(CC(C5)C3)C4)no2)c1 [M2WJ332, (3S,5S,7S)-N-{[5-(thiophen-2-yl)-1,2-oxazol-3-yl]methyl}tricycle[3.3.1.1~3,7~]decan-1-aminium, reference compound] | – | – | 100 | 1180 | – | EC50 (H1N1 WSN virus): 153 nM; reduction in virus titre [2]: 1–2 log10; IC50 [2]: 1180 nM |
| CN1CCN(C(=O)c2ccc3ccccc3c2)CC1 [B] | – | – | – | – | neither B nor K exhibited antiviral effects | – |
| CCCCCCCCCN1C[C@H](O)[C@@H](O)[C@H](O)[C@H]1CO [NNDNJ, reference compound] | – | – | – | – | antiviral effects | effect on M2 oligomerisation [3]: disrupted oligomerisation |
| c1cc2nc(C34CC5CC(CC(C5)C3)C4)[nH]c2cn1 [D] | – | – | – | – | antiviral effects | – |
| Cc1c2ccccc2n2cc(-c3ccccc3)nc(C(C)C)c12 [DL7] | antagonism | preference for CD peptides but with activity versus TM at higher concentrations | 100 | 1480 | – | combination effect with L1.1 (Eng195 in MDCK culture): antagonism |
| OCCNC12CC3CC(CC(C3)C1)C2 [J] | – | – | – | – | antiviral effects | – |
| O=C(Nc1nnc[nH]1)c1cc2ccccc2o1 [K] | – | – | – | – | neither B nor K exhibited antiviral effects | – |
| Cc1ncc(C23CC4CC(CC(C4)C2)C3)[nH]1 [H] | – | – | – | – | antiviral effects | – |
